The text below walks through data of PMC8533149 (Biomolecules, 2021).

The subject of the assay is HIV-1 LTR-III G-quadruplex (FAM/TAMRA-labeled LTR-III). As to the kind of experiment: FRET melting assay, LTR-III G4. It is filed as binding. The settings on record: Table S1 primary screening, ligand:ODN 50:1, singlicate. How it is done: To evaluate stabilizing properties of the ligands in a complex with oligodeoxyribonucleotides (ODNs) melting with fluorescence registration was used. ODN (0.5 μM) (Table 1), labeled with 6-carboxyfluorescein (FAM) and 6-carboxytetramethylrhodamine (TAMRA) at the 5′- and 3′-end, respectively, were folded in lithium cacodylate buffer (10 mM, pH 7.4) with 100 mM KCl by heating at 95 °C for 5 min and gradually cooling to r.t. GFP chromophore analogs (5 mM solution in DMSO) were diluted with the same buffer to the final concentration of 25 μM and mixed with an equal volume of 0.5 μM ODN solution resulting in a molar ratio of 50:1 (total volume was 50 μL). For the titration experiments molar ratios of 20:1 and 2:1 were used. Samples were analyzed using DTprime qPCR system (DNA-Technology LLC, Moscow, Russia). Fluorescence was registered by detection of FAM emission at 520 nm upon excitation at 495 nm in the temperature range of 30–95 °C with 1 °C/min gradient. Tm was determined using the instrument software and ΔTm was calculated relative to ODN Tm in a buffer solution containing 0.25% (v/v) DMSO. The primary and secondary screening were carried out in singlicate and triplicate, respectively.
With `CC1=NC(=Cc2ccc(C(=O)O)cc2)C(=O)N1C` [AI 89], the “LTR-III ΔTm” value was -0.5 °C.

Regarding `COC(=O)c1ccc(C=C2N=C(C=Cc3ccc(OC)cc3)N(C)C2=O)cc1` [AI 116], the “LTR-III ΔTm” value was determined as 0.8 °C.

In the case of `COc1ccc(C=CC2=NC(=Cc3cc(OC)ccc3OC)C(=O)N2C)cc1` [AI 118], the “LTR-III ΔTm” value is -0.1 °C.

With `COc1ccc(C=CC2=NC(=Cc3ccc([N+](=O)[O-])cc3)C(=O)N2C)cc1` [AI 119], the “LTR-III ΔTm” value came to 1.4 °C.

As to `COc1ccc(C=CC2=NC(=Cc3cc4cc(OC)ccc4cc3OC)C(=O)N2C)cc1` [AI 126], the “LTR-III ΔTm” value was 1.6 °C.

As to `CC(C)OC(=O)c1noc(=O)c(O)c1-c1ccc(O)cc1` [AL 23], the “LTR-III ΔTm” value was 0 °C.

Take `CC(C)OC(=O)c1noc(C(=O)NC2CCCCC2)c1-c1cccs1` [AL 25]: the “LTR-III ΔTm” value is -0.1 °C.

On to `COc1ccc(NC(=O)c2onc(C(=O)OC(C)C)c2-c2ccc(OC)cc2)cc1` [AL 45], for which the “LTR-III ΔTm” value came out at 0.2 °C.

Consider `CCNCC.CCOC(=O)c1noc(=O)c(O)c1-c1ccccc1` [AL 58], for which the “LTR-III ΔTm” value stood at 0.1 °C.

Turning to `COc1ccc(C=CC2=NC(=Cc3ccnc4ccccc34)C(=O)N2C)cc1` [AL 122], the “LTR-III ΔTm” value is -0.6 °C.

On to `COc1ccc(C=CC2=NC(=Cc3ccnc4ccccc34)C(=O)N2C)cc1` [AL 125], for which the “LTR-III ΔTm” value came to 1.7 °C.

With `CCC1=NC(=Cc2cc(C(C)(C)C)c(O)c(C(C)(C)C)c2)C(=O)N1C` [AL 135.2], the “LTR-III ΔTm” value was -1.3 °C.

As for `CN(C)c1ccc(C=C2NC(=S)NC2=O)cc1` [AL 165], the “LTR-III ΔTm” value is -0.2 °C.

As to `CSC1=NC(=Cc2ccc(N(C)C)cc2)C(=O)N1` [AL 166.1], the “LTR-III ΔTm” value was 0.1 °C.

As for `CCN(CC)c1ccc(C=C2NC(=S)NC2=O)cc1` [AL 172], the “LTR-III ΔTm” value is -0.2 °C.

Take `CN1C(=O)C(=Cc2ccc(O[Si](c3ccccc3)(c3ccccc3)C(C)(C)C)cc2)N=C1c1ccccc1` [Amm 75]: the “LTR-III ΔTm” value is -0.3 °C.

`CN1C(=O)C(=Cc2ccc(O)cc2)N=C1CCCCNC(=O)OC(C)(C)C` [Boc-AV-GFP]: the “LTR-III ΔTm” value came out at 0.2 °C.

With `COc1cc(C=C2SC(=S)NC2=O)cc(OC)c1O` [DOM], the “LTR-III ΔTm” value was -0.6 °C.

Regarding `CC1=NC(=Cc2ccc(O)cc2)C(=O)N1` [GA 01], the “LTR-III ΔTm” value was -0.4 °C.

As for `CN1C=NC(=Cc2ccc(O)cc2)C1=O` [GA 02], the “LTR-III ΔTm” value is -0.4 °C.

For the compound `CC1=NC(=Cc2ccc(O)cc2)C(=O)N1C` [GA 03], the “LTR-III ΔTm” value was 0.5 °C.

Consider `CCC1=NC(=Cc2ccc(O)cc2)C(=O)N1C` [GA 04], for which the “LTR-III ΔTm” value is -0.1 °C.

For the compound `CCCC1=NC(=Cc2ccc(O)cc2)C(=O)N1C` [GA 05], the “LTR-III ΔTm” value is -0.5 °C.

As for `CC(C)C1=NC(=Cc2ccc(O)cc2)C(=O)N1C` [GA 06], the “LTR-III ΔTm” value was -0.7 °C.

Consider `CC1=NC(=Cc2ccc(O)cc2)C(=O)N1CCO` [GA 12], for which the “LTR-III ΔTm” value is 0.3 °C.

As for `CCC1=NC(=Cc2ccc(O)cc2)C(=O)N1O` [GA 15], the “LTR-III ΔTm” value was -0.1 °C.

As to `CON1C(=O)C(=Cc2ccc(O)cc2)N=C1C` [GA 16], the “LTR-III ΔTm” value was determined as 0.3 °C.

On to `CC(C)CCC1=NC(=Cc2ccc(O)cc2)C(=O)N1C` [GA 18], for which the “LTR-III ΔTm” value is -0.1 °C.

As to `CCN(CC)c1ccc(C=C2N=C(C)N(C)C2=O)cc1` [GC 01], the “LTR-III ΔTm” value came to 0.4 °C.

For `CCN(CC)c1ccc(C=C2N=C(C)N(CCCC(=O)O)C2=O)cc1` [GC 03], the “LTR-III ΔTm” value was found to be 0.4 °C.

`CCN(CC)c1ccc(C=C2N=C(C)N(C)C2=O)cc1` [GC 04]: the “LTR-III ΔTm” value worked out at 0 °C.

In the case of `CC1=NC(=Cc2c[nH]c3ccccc23)C(=O)N1C` [GC 07], the “LTR-III ΔTm” value is -0.4 °C.

`CN1C(=O)C(=Cc2ccc(O)cc2)N=C1Cc1ccccc1` [GFP-2-Bn]: the “LTR-III ΔTm” value is -1.5 °C.

On to `CNC(=O)C(=Cc1ccc(Br)cc1)NC(=O)c1ccccc1` [GR 83], for which the “LTR-III ΔTm” value is -0.8 °C.

Turning to `CN1C(=O)C(=Cc2ccc(OCC(NC(=O)OC(C)(C)C)C(=O)O)cc2)N=C1c1ccccc1` (stereo not drawn) [GR 161], the “LTR-III ΔTm” value is -0.2 °C.

On to `O=C1NC(=S)SC1=Cc1ccc(O)cc1` [HBR], for which the “LTR-III ΔTm” value is -0.2 °C.

With `Cc1cc(/C=C2\SC(=S)NC2=O)ccc1O` [HMBR], the “LTR-III ΔTm” value is -0.6 °C.

For `COc1ccc(C=C2N=C3C(=O)NCCN3C2=O)cc1` [JL 06.1], the “LTR-III ΔTm” value was determined as 0.1 °C.

Regarding `COc1ccc(C=C2N=C3C(=O)NCCN3C2=O)cc1OC` [JL 06.2], the “LTR-III ΔTm” value was 0.4 °C.

In the case of `CCN(CC)c1ccc(/C=C2\N=C3C(=O)NCCN3C2=O)cc1` [JL 19], the “LTR-III ΔTm” value was 0.1 °C.

As for `CC(=O)Oc1ccc(C=C2N=C(C=C(OC(=O)c3ccc(C)cc3)c3ccc(C)cc3)N(C)C2=O)cc1` [M 202], the “LTR-III ΔTm” value is -0.6 °C.

Consider `CN1C(=O)C(=Cc2ccc(OC(=O)c3ccccc3)cc2)N=C1C=C(OC(=O)c1ccccc1)c1ccccc1` [M 228], for which the “LTR-III ΔTm” value is -0.8 °C.

For `CCC(=O)Oc1ccc(C=C2N=C(CC)OC2=O)cc1` [M 292], the “LTR-III ΔTm” value is -0.6 °C.

As to `O=C1NC(C=Cc2cc(Br)c(O)c(Br)c2)=NC1=Cc1ccc(O)cc1` [M 295], the “LTR-III ΔTm” value is -0.5 °C.

Consider `COc1ccc(C=C2N=C(C)N(OC)C2=O)cc1` [M 312], for which the “LTR-III ΔTm” value was -0.2 °C.

In the case of `CCC1=NC(=Cc2ccc(O)cc2)C(=O)N1OC` [M 316], the “LTR-III ΔTm” value is -0.3 °C.

As to `COc1ccc(C=C2N=C(C(C)(C)C)N(C)C2=O)cc1` [M 440], the “LTR-III ΔTm” value was -0.1 °C.

Take `CCC1=NC(=Cc2ccc(OC)cc2)C(=O)N1C` [M 497a2]: the “LTR-III ΔTm” value was -0.4 °C.

Regarding `CON1C(=O)C(=Cc2ccc(O)cc2)N=C1CCC(C)C` [M 552], the “LTR-III ΔTm” value worked out at 0 °C.

Regarding `CC1=NC(=Cc2ccc(O)c(F)c2)C(=O)N1C` [M 556], the “LTR-III ΔTm” value is -0.2 °C.

Regarding `CON1C(=O)C=NC(=Cc2ccc(O)cc2)C1=O` [M 577], the “LTR-III ΔTm” value is 0.1 °C.

`C=CCN1C(=O)C(=Cc2ccc(O[Si](c3ccccc3)(c3ccccc3)C(C)(C)C)cc2)N=C1C` [M 653]: the “LTR-III ΔTm” value is -0.2 °C.

As to `CC(=O)Oc1ccc(C=C2N=C(C)N(CCNC(=O)OC(C)(C)C)C2=O)cc1` [M 678], the “LTR-III ΔTm” value is -0.4 °C.

Consider `CCN(CC)c1ccc(C=C2N=C(C)N(C)C2=O)c(B(F)F)c1` [M 739], for which the “LTR-III ΔTm” value is -0.4 °C.

Consider `CCC1=NC(=Cc2ccc(N(CC)CC)cc2)C(=O)N1C` [M 747], for which the “LTR-III ΔTm” value is 0.6 °C.

Regarding `CN1C(=O)C(=Cc2ccc(O)cc2)N=C1c1ccccc1` [M 750], the “LTR-III ΔTm” value is -0.2 °C.

With `CC1=NC(=Cc2ccc(O)cc2)C(=O)N(O)C1=O` [M 800], the “LTR-III ΔTm” value was -0.2 °C.

As for `CC(C)CCC1=NC(=Cc2ccc(O)cc2)C(=O)N1` [M 803], the “LTR-III ΔTm” value was -0.1 °C.

For the compound `CCN(CC)c1ccc(C=C2N=C(C)N(CCCC(=O)O)C2=O)cc1` [M 820], the “LTR-III ΔTm” value amounted to 0.1 °C.

For the compound `CC1=NC(=Cc2cc(F)c(O)c(F)c2)C(=O)N1CCCC(=O)O` [M 894], the “LTR-III ΔTm” value is -0.3 °C.

For `CCN(CC)c1ccc(C=C2N=C(C=Cc3ccncc3)N(C)C2=O)cc1` [M 895], the “LTR-III ΔTm” value was determined as 0.8 °C.

Turning to `CC1=NC(=Cc2cc(Br)c(O)c(Br)c2)C(=O)N1C` [M 906], the “LTR-III ΔTm” value was -2.7 °C.

Regarding `COc1ccc(C(=O)Oc2ccccc2)cc1` [M 939], the “LTR-III ΔTm” value was -1.1 °C.
